Measurements from patent publication US4171299A, “Polypeptide agents for blocking the human allergic response” (The Regents of the University of California, priority 1976, dated 1979).
Peptide text beside a SMILES is read from it.

Key:
Format in all cases: in vivo
DBA white mice = experiment: Acute toxicity in DBA white mice; conditions: 24 to 72 hours post-injection; for post-mortem gross and microscopic examination of tissues and organs: 1.4 ml i.d./s.c./i.v./i.p.
Protocol: Acute toxicity was determined as follows:
DBA white mice (average weight 15 g.) were each injected with 1.4 ml. of a solution of the peptide in phosphate buffered saline, pH 7.4, as follows:
0.1 ml.×3 --subcutaneously
0.6 ml.--intraperitoneally
The peptides and concentrations used were as follows:
Ala-Asp-Ser-Asp-Pro-Arg (Example 4)--5 μg/ml--(375 mg/kg)--6 mice
Asp-Ser-Asp-Pro-Arg (Example 3)--10 μg/ml--(1 mg/kg)--8 mice
Asp-Ser-Asp-Pro-Arg (Example 3)--13 μg/ml--(1.3 mg/kg)--8 mice

[1] = target: T1, IgE already bound to mast cell sites (Homo sapiens, UniProt P12319); experiment: Displacement test: direct guinea pig antigen skin challenge in a naturally sensitive individual; conditions: single sensitive individual; for wheal smaller than at buffered saline diluent site: challenge twenty-four hours after intradermal injection of approx. 2 nM
T1 construct: endogenous in cells; host or cells: skin mast cells of one naturally guinea-pig-sensitive person, carrying own IgE
T1 sequence (P12319 26-257): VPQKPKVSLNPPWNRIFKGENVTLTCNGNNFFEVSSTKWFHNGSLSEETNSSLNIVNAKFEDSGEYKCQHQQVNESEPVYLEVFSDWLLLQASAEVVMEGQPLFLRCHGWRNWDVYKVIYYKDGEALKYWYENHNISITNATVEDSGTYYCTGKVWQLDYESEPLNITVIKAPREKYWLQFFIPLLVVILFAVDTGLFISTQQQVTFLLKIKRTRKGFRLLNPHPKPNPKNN
T1 sequence (Q01362 1-244 partner): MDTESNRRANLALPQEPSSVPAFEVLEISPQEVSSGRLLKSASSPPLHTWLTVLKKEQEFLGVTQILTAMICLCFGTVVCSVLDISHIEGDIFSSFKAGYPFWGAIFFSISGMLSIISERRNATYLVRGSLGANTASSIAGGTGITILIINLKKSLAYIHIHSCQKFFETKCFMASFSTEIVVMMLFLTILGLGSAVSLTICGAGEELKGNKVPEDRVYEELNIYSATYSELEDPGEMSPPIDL
T1 sequence (P30273 19-86 partner): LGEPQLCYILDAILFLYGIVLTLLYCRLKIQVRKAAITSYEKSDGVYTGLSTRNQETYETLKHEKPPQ
Protocol: It has also been determined that the active polypeptides of the invention appear to have the ability to "displace" IgE from mast cell sites as well as to prevent the binding of IgE to these sites. In a single test, an individual known to have extreme sensitivity to guinea pig antigens, that is a person with a high natural concentration of guinea-pig-antigen-sensitive IgE, was injected with polypeptides in accordance with the invention, and […] reaction to guinea pig antigen was noted.
Specifically, approximately 2 nM each of Asp-Ser-Asp-Pro-Arg and Ala-Asp-Ser-Asp-Pro-Arg were each intradermally injected into 3 marked sites. For comparison, TASME, as well as a control of the buffer diluent alone, was also each injected into 3 marked sites. At one, five and twenty-four hours subsequent to the polypeptide and control injection, one of each peptide and one diluent site were prick-puncture challenged with guinea pig antigen. […] However, at the twenty-four hour challenge, the wheal at the Asp-Ser-Asp-Pro-Arg site was approximately 45% smaller; while at the Ala-Asp-Ser-Asp-Pro-Arg site, the wheal was approximately 23% smaller.

[2] = target: T2, binding sites on mast cells (Homo sapiens, UniProt P12319); experiment: Prausnitz-Kustner (P-K) reaction blocking activity assay in human volunteers; conditions: for inhibition, individual high: highest individual of six; for inhibition, individual high / inhibition, individual low: same conditions as the average; for inhibition, individual low: lowest individual of six; for average % inhibition (P-K wheal): six individuals, peptide approx. 6 μg/ml, 0.1 ml intradermally per site, 0.05 ml diluted P-K serum containing 0.2 ng IgE, guinea pig antigen prick-puncture, versus control wheal
T2 construct: endogenous in cells; host or cells: skin mast cells of living human volunteers (intradermal injection sites on back or forearm)
T2 sequence (P12319 26-257): T1 sequence (P12319 26-257)
T2 sequence (Q01362 1-244 partner): T1 sequence (Q01362 1-244 partner)
T2 sequence (P30273 19-86 partner): T1 sequence (P30273 19-86 partner)
Protocol: The "blocking" activity of the polypeptides of the invention can be assayed by utilization of the classic Prausnitz-Kustner (P-K) reaction. In this classic method, a known allergic serum i.e., one that contains IgE specific for a known antigen or allergen is injected intradermally into a human volunteer. After waiting a period of time, e.g. 20 or more hours, the injected sites are then challenged with a prick or injection of a solution of an antigen that is specific for the IgE in the injected serum. Within the next 10 to 30 minutes a positive reaction is evidenced by the development of a wheal (and flare) at the injected site. The more extensive the diameter of the wheal the more intensive is the allergic reaction. That is, a more extensive wheal indicates a greater release of histamine into the tissues at the injected site. Conversely, the development of wheals of lesser diameter or the absence of any wheal at all indicates diminished allergic reaction and/or no allergic reaction at all. The P-K reaction as noted above is a classic test and is universally known and utilized by allergists.
As noted above, the classic P-K reaction is utilized to assay the "blocking" abilities of the polypeptides utilized in the present invention.
The following describes assays of a number of polypeptides useful in the present invention, the synthesis of which was described hereinabove.
All of these assays were performed using a single proven safe P-K donor serum that contains IgE specific for guinea pig allergens.
Peptide solutions were either injected intradermally 1 to 24 hours prior to the P-K serum, or mixed with dilutions of the P-K serum for simultaneous injection. Initial tests were performed using the P-K serum at from 1:4 to 1:200 dilutions. Further studies were run at a fixed P-K dilution of 1:32 while the invention peptide solutions were varied to contain from about 1 mM to […] of the peptide being tested. Injected sites on the volunteers were challenged by prick-puncture of guinea pig BCA 1:40 w/v (purchased from Berkeley Biologicals, Inc.).
Human volunteers were chosen who had serum IgE levels below 100 U/ml (242 ng/ml) which levels have been previously shown to assure successful P-K reactivity. […] P-K and skin tests were performed on the back and/or forearm. Multiple test sites of approximately 25 mm diameter were circled with a marking pen and all injections were made within the circled skin areas.
A typical sequence of events was intradermal injection of 0.1 ml of the peptide solution or control buffered saline diluent solution; followed in 1 to 24 hours by intradermal injection of 0.05 ml. of P-K serum into each of the previously injected sites. After 20 to 24 hours had elapsed, each site was prick-punctured with the antigen solution, blotted dry in 5 minutes and measurements of the wheal and flare in both their narrowest and widest diameter were made three times, usually 15, 20 and 25 minutes after prick-punctures.
Blocking activity assays were undertaken with the following polypeptides: Asp-Pro-Arg; Ser-Asp-Pro-Arg; Asp-Ser-Asp-Pro-Arg; and Ala-Asp-Ser-Asp-Pro-Arg. For comparison testing, Asp-Thr-Glu-Ala-Arg and tosyl-L-arginine sarcosine methylester (TASME), were also synthesized and tested.
The above-noted polypeptides were assayed as noted above on six different individuals. Results were as follows:
The results, as noted above, present the average of measurements at three time intervals, in duplicate, for each reaction in each individual, subtracted from the average control wheal measurements, and divided by the average measurement of each individual's control wheal. Control wheals in different individuals varied from 8 to 40 mm^2 with a mean of 17 mm^2. Each peptide was utilized at approximately 6 μg/ml dilution and 0.1 ml. was injected at each site, followed by 0.05 ml. of diluted P-K serum containing 0.2 ng. of IgE. […]

| Compound | post-mortem gross and microscopic examination of tissues and organs (DBA white mice; 5 μg/ml (375 mg/kg), 6 mice) | survival of mice (DBA white mice; 5 μg/ml (375 mg/kg), 6 mice) | wheal smaller than at buffered saline diluent site [1] | inhibition, individual high [2] [%] | inhibition, individual low [2] [%] | average % inhibition (P-K wheal) [2] [%] | post-mortem gross and microscopic examination of tissues and organs (DBA white mice; 10 μg/ml (1 mg/kg), 8 mice) | survival of mice (DBA white mice; 10 μg/ml (1 mg/kg), 8 mice) | post-mortem gross and microscopic examination of tissues and organs (DBA white mice; 13 μg/ml (1.3 mg/kg), 8 mice) | survival of mice (DBA white mice; 13 μg/ml (1.3 mg/kg), 8 mice) | inhibition of the wheal and flare reaction ([1]; challenge one and five hours after intradermal injection of approx. 2 nM) |
| --- | --- | --- | --- | --- | --- | --- | --- | --- | --- | --- | --- |
| C[C@H](N)C(=O)N[C@@H](CC(=O)O)C(=O)N[C@@H](CO)C(=O)N[C@@H](CC(=O)O)C(=O)N1CCC[C@H]1C(=O)N[C@@H](CCCNC(=N)N)C(=O)O [Ala-Asp-Ser-Asp-Pro-Arg] (H-ADSDPR-OH) | no local or systemic toxicological abnormalities | all still living | approximately 23% | 61 | 10 | 46 | – | – | – | – | – |
| N=C(N)NCCC[C@H](NC(=O)[C@@H]1CCCN1C(=O)[C@@H](N)CC(=O)O)C(=O)O [Asp-Pro-Arg] (H-Asp-Pro-Arg-OH) | – | – | – | 38 | 0 | 15 | – | – | – | – | – |
| N=C(N)NCCC[C@H](NC(=O)[C@@H]1CCCN1C(=O)[C@H](CC(=O)O)NC(=O)[C@H](CO)NC(=O)[C@@H](N)CC(=O)O)C(=O)O [Asp-Ser-Asp-Pro-Arg] (H-DSDPR-OH) | – | – | approximately 45% | 89 | 60 | 72 | no local or systemic toxicological abnormalities | all still living | no local or systemic toxicological abnormalities | all still living | – |
| C[C@H](NC(=O)[C@H](CCC(=O)O)NC(=O)[C@@H](NC(=O)[C@@H](N)CC(=O)O)[C@@H](C)O)C(=O)N[C@@H](CCCNC(=N)N)C(=O)O [Asp-Thr-Glu-Ala-Arg, reference compound] (H-DTEAR-OH) | – | – | – | 80 | 30 | 58 | – | – | – | – | – |
| N=C(N)NCCC[C@H](NC(=O)[C@@H]1CCCN1C(=O)[C@H](CC(=O)O)NC(=O)[C@@H](N)CO)C(=O)O [Ser-Asp-Pro-Arg] (H-SDPR-OH) | – | – | – | 50 | 0 | 18 | – | – | – | – | – |
| tosyl-L-arginine sarcosine methylester [TASME, reference compound] | – | – | No reduction in the size of the wheal | 40 | 0 | 24 | – | – | – | – | No inhibition |
